From ChEMBL document CHEMBL1140320, “Second generation transition state analogue inhibitors of human 5'-methylthioadenosine phosphorylase” (J Med Chem, 2005)

T1: S-methyl-5'-thioadenosine phosphorylase (Homo sapiens, UniProt Q13126)
T1 sequence (Q13126 whole entry): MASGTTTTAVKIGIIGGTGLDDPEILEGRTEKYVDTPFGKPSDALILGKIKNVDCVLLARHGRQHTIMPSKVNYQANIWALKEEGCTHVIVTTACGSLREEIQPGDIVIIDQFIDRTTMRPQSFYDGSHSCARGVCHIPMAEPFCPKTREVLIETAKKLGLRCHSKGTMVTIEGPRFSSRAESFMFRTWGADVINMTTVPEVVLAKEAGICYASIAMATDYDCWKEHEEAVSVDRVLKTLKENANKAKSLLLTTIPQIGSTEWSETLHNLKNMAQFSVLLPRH


Tests used:
[1] = molecular target: T1, S-methyl-5'-thioadenosine phosphorylase; assay: Inhibition of human MTAP as equilibrium dissociation constant
[2] = molecular target: T1, S-methyl-5'-thioadenosine phosphorylase; assay: Inhibition of human MTAP as initial dissociation constant
[3] = molecular target: T1, S-methyl-5'-thioadenosine phosphorylase; assay: Inhibition of human MTAP as equilibrium dissociation constant; ND=no slow-onset phase
[4] = substrate: CSC[C@H]1O[C@@H](n2cnc3c(N)ncnc32)[C@H](O)[C@@H]1O; assay: Km for human MTAP

| Ki [1] [nM] | Ki [2] [nM] | Ki [3] | Molecule | Km [4] [µM] |
| --- | --- | --- | --- | --- |
| 0.16 | 0.81 |  | NC1NC=Nc2c(CN3CC(O)C(CSc4ccc(F)cc4)C3)c[nH]c21 (stereo not drawn) |  |
| 0.17 | 1.5 |  | NC1NC=Nc2c(CN3CC(O)C(CSc4ccccc4)C3)c[nH]c21 (stereo not drawn) |  |
|  | 55 | No slow-onset phase observed | Nc1ncnc2c(CN3CC(O)C(CSCc4ccccc4)C3)n[nH]c12 (stereo not drawn) |  |
| 42 | 85 |  | NC1N=CNc2c(CN3CC(O)C(COCc4ccccc4)C3)c[nH]c21 (stereo not drawn) |  |
| 0.16 | 2 |  | NC1N=CNc2c(CN3CC(O)C(CSc4ccncc4)C3)c[nH]c21 (stereo not drawn) |  |
| 3 | 22 |  | CCCC1CN(Cc2c[nH]c3c2N=CNC3N)CC1O (stereo not drawn) |  |
| 0.7 | 1.4 |  | Nc1[nH]cnc2c(CN3CC(O)C(CSCc4ccccc4)C3)cnc1-2 (stereo not drawn) |  |
| 0.09 | 1.7 |  | CSCC1CN(Cc2c[nH]c3c(N)ncnc23)CC1O (stereo not drawn) |  |
| 0.26 | 0.9 |  | CC(C)SCC1CN(Cc2c[nH]c3c2NC=NC3N)CC1O (stereo not drawn) |  |
| 0.27 | 2 |  | NC1NC=Nc2c(CN3CC(O)C(CSc4cccc(Cl)c4)C3)c[nH]c21 (stereo not drawn) |  |
| 0.37 | 0.76 |  | NC1NC=Nc2c(CN3CC(O)C(CSC4CCCCC4)C3)c[nH]c21 (stereo not drawn) |  |
| 0.034 | 0.65 |  | CCSCC1CN(Cc2c[nH]c3c2N=CNC3N)CC1O (stereo not drawn) |  |
| 0.01 | 0.36 |  | NC1N=CNc2c(CN3CC(O)C(CSc4ccc(Cl)cc4)C3)c[nH]c21 (stereo not drawn) |  |
| 0.11 | 0.28 |  | CCCCSCC1CN(Cc2c[nH]c3c2N=CNC3N)CC1O (stereo not drawn) |  |
| 0.12 | 1.3 |  | CCCSCC1CN(Cc2c[nH]c3c2NC=NC3N)CC1O (stereo not drawn) |  |
| 8 | 14 |  | COCC1CN(Cc2c[nH]c3c2N=CNC3N)CC1O (stereo not drawn) |  |
|  |  |  | S-methyl-5'-thioadenosine phosphorylase (Homo sapiens), Q13126 (protein) MASGTTTTAVKIGIIGGTGLDDPEILEGRTEKYVDTPFGKPSDALILGKIKNVDCVLLARHGRQHTIMPSKVNYQANIWALKEEGCTHVIVTTACGSLREEIQPGDIVIIDQFIDRTTMRPQSFYDGSHSCARGVCHIPMAEPFCPKTREVLIETAKKLGLRCHSKGTMVTIEGPRFSSRAESFMFRTWGADVINMTTVPEVVLAKEAGICYASIAMATDYDCWKEHEEAVSVDRVLKTLKENANKAKSLLLTTIPQIGSTEWSETLHNLKNMAQFSVLLPRH | 5 |
